The results in this text go back to the NIST ThermoML archive (doi:10.1016/j.jct.2013.03.007).

The conditions of the data set: 101.33 kPa, Liquid, Vibrating tube method.

Numbers after ± are expanded uncertainties.

For orientation: mass density means the mass of a sample divided by its volume. Regarding `CCCCn1cc[n+](C)c1.F[P-](F)(F)(F)(F)F` [1-butyl-3-methylimidazolium hexafluorophosphate], the mass density reads like this: (288.2 K) 1376.4 ± 0.6 kg/m3; (293.2 K) 1372.1 ± 0.6 kg/m3; (298.2 K) 1367.8 ± 0.6 kg/m3; (303.2 K) 1363.6 ± 0.5 kg/m3; (308.2 K) 1359.5 ± 0.5 kg/m3; (313.2 K) 1355.6 ± 0.5 kg/m3. For the same compound, the mass density runs as follows: (318.2 K) 1351.3 ± 0.5 kg/m3; (323.2 K) 1347.2 ± 0.5 kg/m3; (328.2 K) 1343.1 ± 0.5 kg/m3; (333.2 K) 1339 ± 0.5 kg/m3; (338.2 K) 1335 ± 0.5 kg/m3; (343.2 K) 1330.9 ± 0.5 kg/m3. The mass density (348.2 K) is 1326.8 ± 0.5 kg/m3 and the mass density (353.2 K) worked out at 1322.8 ± 0.5 kg/m3.

In the case of `CCCCn1cc[n+](C)c1.F[B-](F)(F)F` [1-butyl-3-methylimidazolium tetrafluoroborate], the mass density reads like this: (293.2 K) 1204.1 ± 1.3 kg/m3; (298.2 K) 1201 ± 1.3 kg/m3; (303.2 K) 1197.5 ± 1.3 kg/m3; (308.2 K) 1194 ± 1.3 kg/m3; (313.2 K) 1190.4 ± 1.3 kg/m3; (318.2 K) 1186.9 ± 1.2 kg/m3. The mass density stood at 1183.4 ± 1.2 kg/m3 (323.2 K); 1180 ± 1.2 kg/m3 (328.2 K); 1176.5 ± 1.2 kg/m3 (333.2 K); 1173 ± 1.2 kg/m3 (338.2 K); 1169.6 ± 1.2 kg/m3 (343.2 K); 1166.1 ± 1.2 kg/m3 (348.2 K). In addition, the mass density is reported as 1162.7 ± 1.2 kg/m3 (353.2 K) and 1159.3 ± 1.2 kg/m3 (358.2 K).
